From ChEMBL document CHEMBL1153891, “Bioactivity-guided isolation of cytotoxic constituents of Brucea javanica collected in Vietnam” (2009)

Key:
Lu1 = experiment: Cytotoxicity against human Lu1 cells after 2 days by sulforhodamine B assay; assay type: functional; conditions: Lu1, 48 h, read-out: ED50 (the source's name)
MDR [1] = experiment: Inhibition of MDR pump assessed as potentiation of bruceine A-induced cytotoxicity against human MCF7 cells at 20 ug/mL after 2 days by sulforhodamine B assay; assay type: cell-based
MDR [2] = experiment: Inhibition of MDR pump assessed as potentiation of bruceantin-induced cytotoxicity against human MCF7 cells at 20 ug/mL after 2 days by sulforhodamine B assay; assay type: cell-based
MCF7 [3] = experiment: Cytotoxicity against human MCF7 cells after 2 days by sulforhodamine B assay; assay type: functional; conditions: MCF7, 48 h, read-out: ED50 (the source's name)
LNCaP = experiment: Cytotoxicity against hormone-dependent human LNCAP cells after 2 days by sulforhodamine B assay; assay type: functional; conditions: 48 h, read-out: ED50 (the source's name)
MCF7 [4] = experiment: Cytotoxicity against human MCF7 cells after 2 days by sulforhodamine B assay in presence of 43 uM (-)-hydnocarpin; assay type: functional; conditions: MCF7, 48 h, read-out: ED50 (the source's name)
MCF7 [5] = experiment: Ratio ED50 for human MCF7 cells to ED50 for human MCF7 cells in presence of 43 uM (-)-hydnocarpin; assay type: functional

Row | Structure (SMILES) | EC50 (Lu1) [µM] | ED50 (MDR [1]) [µM] | ED50 (MDR [2]) [µM] | EC50 (MCF7 [3]) [µM] | EC50 (LNCaP) [µM] | EC50 (MCF7 [4]) [µM] | Ratio ED50 (MCF7 [5])
1 | COc1cc([C@@H]2Oc3ccc(-c4cc(=O)c5c(O)cc(O)cc5o4)cc3O[C@H]2CO)ccc1O | > 10 | > 10 | > 10 | > 10 | > 10 | – | –
2 | CCCCCC(=O)O[C@@H]1C[C@]2(C)C(=CC[C@H]2[C@@H]2C[C@@H]([C@@H]3OC3(C)C)O[C@@H]2OC(C)=O)[C@@]2(C)[C@H]1[C@@]1(C)C=CC(=O)C(C)(C)[C@@H]1C[C@H]2OC(C)=O | > 10 | – | – | > 10 | > 10 | – | –
3 | C/C=C(\C)C(=O)O[C@@H]1C[C@@]2(C)[C@H]([C@@H]3C[C@@H]([C@@H]4OC4(C)C)O[C@@H]3OC(C)=O)CC[C@]2(C)[C@@H]2CC=C3C(C)(C)C(=O)C[C@H](O)[C@]3(C)[C@H]21 [BRUCEAJAVANINONE A] | > 10 | – | – | > 10 | > 10 | – | –
4 | CCCCCC(=O)O[C@@H]1C[C@]2(C)C(=CC[C@H]2[C@@H]2C[C@@H]([C@@H]3OC3(C)C)O[C@@H]2OC(C)=O)[C@]2(C)[C@H](O)C[C@H]3C(C)(C)C(=O)C=C[C@]3(C)[C@@H]12 [BRUCEAJAVANONE A] | > 10 | – | – | > 10 | > 10 | – | –
5 | C/C=C(\C)C(=O)O[C@@H]1C[C@]2(C)C(=CC[C@H]2[C@@H]2C[C@@H]([C@@H]3OC3(C)C)O[C@@H]2OC(C)=O)[C@@]2(C)[C@H]1[C@@]1(C)C=CC(=O)C(C)(C)[C@@H]1C[C@H]2OC(C)=O [BRUCEAJAVANONE B] | > 10 | – | – | > 10 | > 10 | – | –
6 | C/C=C(\C)C(=O)O[C@@H]1C[C@]2(C)C(=CC[C@H]2[C@@H]2C[C@@H]([C@@H]3OC3(C)C)O[C@H]2OC)[C@]2(C)[C@H](OC(C)=O)C[C@H]3C(C)(C)C(=O)C[C@H](O)[C@]3(C)[C@@H]12 [BRUCEAJAVANONE C] | > 10 | – | – | > 10 | > 10 | – | –
7 | COC(=O)[C@@]12OC[C@]34[C@H]([C@@H](O)[C@@H]1O)[C@@]1(C)CC(=O)C(O)=C(C)[C@@H]1C[C@H]3OC(=O)[C@H](OC(=O)/C=C(\C)C(C)C)[C@@H]24 [BRUCEANTIN] | 0.012 | – | – | 0.002 | 0.011 | 0.00027 | 7.4
8 | COC(=O)[C@@]12OC[C@]34[C@H]([C@@H](O)[C@@H]1O)[C@@]1(C)CC(=O)C(O)=C(C)[C@@H]1C[C@H]3OC(=O)[C@H](OC(=O)CC(C)C)[C@@H]24 [BRUCEINE A] | 0.079 | – | – | 0.015 | 0.096 | 0.0015 | 10
9 | CC[C@@]1(O)C(=O)OCc2c1cc1n(c2=O)Cc2cc3ccccc3nc2-1 [CAMPTOTHECIN] | > 10 | – | – | > 10 | > 10 | – | –
10 | CC(=O)O[C@H]1C(=O)[C@@]2(C)[C@H]([C@H](OC(=O)c3ccccc3)[C@]3(O)C[C@H](OC(=O)[C@H](O)[C@@H](NC(=O)c4ccccc4)c4ccccc4)C(C)=C1C3(C)C)[C@]1(OC(C)=O)CO[C@@H]1C[C@@H]2O [PACLITAXEL] | > 10 | – | – | > 10 | > 10 | – | –
